{"source": "patent US9668995B2", "about": "“Treatment of motor fluctuations” (Motac Neuroscience Limited, priority 2000, dated 2017)", "system": "MPTP-lesioned marmoset model of Parkinson's disease", "experiment": "L-DOPA-induced fluctuations in locomotion in the MPTP-lesioned marmoset model of Parkinson's disease", "format": "in vivo, Marmosets (Callithrix jacchus)", "conditions": "8-OH PIPAT 10 mg/kg co-administered with L-DOPA 8 mg/kg, locomotion assessed every 5 minutes over six hours", "procedure": "The effect of the 5-HT1a-receptor agonist 8-OH-PIPAT on L-DOPA-induced fluctuations in locomotion was assessed in the MPTP-lesioned marmoset model of Parkinson's disease.\nMarmosets (Callithrix jacchus) (bred in a closed colony at the University of Manchester) are rendered parkinsonian by subcutaneous injection of 2 mg kg^−1 MPTP for 5 consecutive days. The marmosets are allowed to recover for a minimum of 10 weeks until their parkinsonism becomes stable.\nA quantitative assessment of locomotor activity was assessed every 5 minutes for the duration of the experiment using computer-based activity monitors.\nLocomotion was measured over a six hour period using Benwick activity monitors. These locomotion monitors consist of a visually-shielded open-field arena, the perimeter of which is surrounded by a series of infra-red beams arranged at 5 cm intervals. PC-based software (Amlogger) assesses the number of beams broken. The number of beams broken as part of a locomotor movement (mobile counts) was measured.\nMarmosets were split into two groups. The first group received L-DOPA (8 mg/kg) and vehicle for 8-OH PIPAT only whereas the second group received L-DOPA (8 mg/kg) and 8-OH PIPAT (10 mg/kg).", "data": [{"smiles": "CCCN(C/C=C/I)C1CCc2cccc(O)c2C1", "note": "(racemic) [8-OH-PIPAT, (RS)-trans-8-hydroxy-2-[N-n-propyl-N-(3′-iodo-2′-propenyl)amino]tetralin]", "values": [{"measurement": "L-DOPA-stimulated 'on-time' (locomotor activity, mobile counts)", "result": "increase in L-DOPA-stimulated ‘on-time’"}]}]}
